The source of these data is US11161815B2, “Hydrocarbylsulfonyl-substituted pyridines and their use in the treatment of cancer” (Oblique Therapeutics AB, priority 2017, dated 2021).

Test [1] addresses recombinant thioredoxin reductase 1 (TrxR1) (Homo sapiens (Human), UniProt Q16881). As to the kind of experiment: Inhibition of recombinant TrxR1 (DTNB assay). Format: biochemical. The settings on record: 30 nM TrxR1, 250 μM NADPH, 15 minutes incubation, read-out: TrxR Assay IC50. Here is the method:
(§1) Small molecule inhibition of recombinant thioredoxin reductase 1 (TrxR1) and gluthathione reductase (GR) was examined in 96-well plate format. 30 nM TrxR1 was incubated in the presence of 250 μM NADPH, 0.1 mg/ml BSA, and various concentrations of compound (1% DMSO final) in 50 mM Tris (pH 7.5) and 2 mM EDTA buffer for 15 minutes. Following the incubation period, 2 mM DTNB was added to each well and the change in O.D. at 412 nm was followed. Percent activity was determined using DMSO vehicle and no TrxR1 (blank) controls. 2 nM GR was incubated in the presence of 250 μM NADPH, 0.1 mg/ml BSA, and various concentrations of compounds (1% DMSO final) in 50 mM Tris (pH 7.5) and 2 mM EDTA buffer for 15 minutes. Following the incubation period, 1 mM GSSG was added to each well and the change in O.D. at 340 nm was followed. Percent activity was determined using DMSO vehicle and no GR (blank) controls.

The subject of the next test is FaDu cells. As to the kind of experiment: Head and neck cancer cell viability assay (Cell-Quanti Blue). Format: cell-based. Particulars: Homo sapiens, 72 hrs, 10% FBS media containing 25 nM selenite. Here is the method:
FaDu cells were plated 2000 cells/well in 96-well black optical plates in the presence of 10% FBS media containing 25 nM selenite. The following day cells were treated with various concentrations of the compound of Example 1 (0.1% DMSO final) and incubated for 72 hrs. After the incubation Cell-Quanti Blue reagent was added to each well and incubated for additional 3 hrs. Fluorescence was read ex:530 nm/em:590 nm, and percent of viability was determined using DMSO vehicle and no cell (blank) controls.

Test [2] deals with gluthathione reductase (GR) (Homo sapiens (Human), UniProt P00390). As to the kind of experiment: Inhibition of recombinant GR (GSSG assay). Format: biochemical. The settings on record: 2 nM GR, 250 μM NADPH, 15 minutes incubation. The procedure:
as §1

For a further test, the system named is MDA-MB-231 cells. As to the kind of experiment: Breast cancer cell viability assay (Alamar Blue). Format: cell-based. The settings on record: Homo sapiens, 72 hrs, 10% FBS media containing 25 nM selenite. The procedure: MDA-MB-231 cells were plated 2000 cells/well in 96-well black optical plates in the presence of 10% FBS media containing 25 nM selenite. The following day cells were treated with various concentrations of compounds (0.1% DMSO final) and incubated for 72 hrs. After the incubation Alamar Blue reagent was added to each well and incubated for additional 3 hrs. Fluorescence was read ex:530 nm/em:590 nm, and percent of viability was determined using DMSO vehicle and no cell (blank) controls.

In another test the test system is MDA-MB-468. As to the kind of experiment: Cancer cell viability assay (MTT), MDA-MB-468. The settings on record: Homo sapiens, 72 hrs, 10% FBS media. Format: cell-based. The procedure:
(§2) Breast cancer and glioblastoma cell lines were plated 4000 cells/well in 96-well plates in the presence of 10% FBS media. The following day cells were treated with various concentrations of the example compounds (0.1% DMSO final) and incubated for 72 hrs. After the incubation An MTT assay was performed to access cell viability. Percent of viability was determined using DMSO vehicle and no cell (blank) controls.

The test system of a further test is MDA-MB-231. Briefly: Cancer cell viability assay (MTT), MDA-MB-231. Format: cell-based. Particulars: Homo sapiens, 72 hrs, 10% FBS media. Here is the method: as §2
For a further test, the system named is U-87 MG. Briefly: Cancer cell viability assay (MTT), U-87 MG. Format: cell-based. Particulars: Homo sapiens, 72 hrs, 10% FBS media. Here is the method: as §2

Sequence of recombinant thioredoxin reductase 1 (TrxR1) (Q16881 151-649): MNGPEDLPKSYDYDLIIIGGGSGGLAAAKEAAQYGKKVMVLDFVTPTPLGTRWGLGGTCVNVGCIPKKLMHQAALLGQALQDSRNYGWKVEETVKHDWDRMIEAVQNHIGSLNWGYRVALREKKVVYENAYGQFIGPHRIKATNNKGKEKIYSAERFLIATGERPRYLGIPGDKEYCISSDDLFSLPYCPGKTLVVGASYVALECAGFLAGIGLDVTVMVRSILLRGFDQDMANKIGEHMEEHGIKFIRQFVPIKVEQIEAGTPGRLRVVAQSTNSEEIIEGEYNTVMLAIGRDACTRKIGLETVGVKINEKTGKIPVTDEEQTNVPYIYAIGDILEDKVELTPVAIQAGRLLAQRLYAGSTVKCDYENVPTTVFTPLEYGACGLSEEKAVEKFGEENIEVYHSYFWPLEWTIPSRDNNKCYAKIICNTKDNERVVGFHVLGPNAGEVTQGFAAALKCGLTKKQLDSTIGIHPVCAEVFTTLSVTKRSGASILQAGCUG
Sequence of gluthathione reductase (GR) (P00390 44-522): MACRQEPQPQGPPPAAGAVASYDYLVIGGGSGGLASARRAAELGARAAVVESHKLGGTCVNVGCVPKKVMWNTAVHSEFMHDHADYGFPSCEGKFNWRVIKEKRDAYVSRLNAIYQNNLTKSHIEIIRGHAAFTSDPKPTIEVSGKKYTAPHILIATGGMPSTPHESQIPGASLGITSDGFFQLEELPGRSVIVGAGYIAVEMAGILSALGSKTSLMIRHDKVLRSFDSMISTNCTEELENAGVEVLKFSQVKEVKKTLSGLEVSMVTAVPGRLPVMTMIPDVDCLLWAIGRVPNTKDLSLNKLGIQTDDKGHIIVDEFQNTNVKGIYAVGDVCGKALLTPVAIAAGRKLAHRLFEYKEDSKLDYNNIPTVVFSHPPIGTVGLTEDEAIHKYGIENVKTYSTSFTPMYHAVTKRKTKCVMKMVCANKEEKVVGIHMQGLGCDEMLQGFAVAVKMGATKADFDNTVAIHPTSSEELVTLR

Take `COc1ccc([N+](=O)[O-])c(S(=O)(=O)C2CCCC2)n1` [Example 2, 2-Cyclopentylsulfonyl-6-methoxy-3-nitropyridine]: the IC50 (commonly the concentration at which inhibition is half-maximal) in test [1] was 1.03 µM; in the test on FaDu cells it was 3.65 µM; in test [2], above 100 µM.

`CN(C)c1ccc([N+](=O)[O-])c(S(=O)(=O)Cc2ccccc2)n1` [Example 7, 2-Benzylsulfonyl-6-dimethylamino-3-nitropyridine] came in with an IC50 in the test on FaDu cells of 2.88 µM.

`CCS(=O)(=O)c1nc(OC)ccc1[N+](=O)[O-]` [Example 10, 2-(ethylsulfonyl)-6-methoxy-3-nitropyridine]: the IC50 is 0.124 µM in test [1]; 2.95 µM in the test on MDA-MB-231 cells; 3.16 µM with MDA-MB-468; 5.12 µM with MDA-MB-231; above 100 µM in test [2]; 5.95 µM in the test with U-87 MG.

As to `COc1ccc([N+](=O)[O-])c(S(=O)(=O)C(C)C)n1` [Example 11, 2-(isopropylsulfonyl)-6-methoxy-3-nitropyridine], the half-inhibitory concentration (IC50) in test [1] is 0.204 µM; with MDA-MB-468 it was 4.9 µM; in the test on MDA-MB-231 it was 7.1 µM; in test [2], above 100 µM; with U-87 MG, 6 µM.

With `CCCCCCCCS(=O)(=O)c1nc(OC)ccc1[N+](=O)[O-]` [Example 12, 6-methoxy-3-nitro-2-(octylsulfonyl)pyridine], the concentration for half-maximal inhibition (IC50) was 0.0123 µM in test [1], 4.51 µM in the test on MDA-MB-231 cells and above 100 µM in test [2].

`COc1ccc([N+](=O)[O-])c(S(=O)(=O)C2CC2)n1` [Example 13, 2-(cyclopropylsulfonyl)-6-methoxy-3-nitropyridine]: the half-maximal inhibitory concentration (IC50) was 0.16 µM in test [1]; 4.68 µM in the test with MDA-MB-468; 5.91 µM with MDA-MB-231; above 100 µM in test [2]; 6.92 µM in the test with U-87 MG.

Take `COc1ccc([N+](=O)[O-])c(S(=O)(=O)CCCCC(F)(F)F)n1` [Example 14, 6-methoxy-3-nitro-2-((5,5,5-trifluoropentyl)sulfonyl)pyridine]: the IC50 in test [1] is 0.0969 µM; with MDA-MB-231 cells, 5.6 µM; with MDA-MB-468, 3.88 µM; in the test on MDA-MB-231 it was 7.73 µM; in test [2] it was above 100 µM; in the test on U-87 MG, 7.52 µM.

Consider `COc1ccc([N+](=O)[O-])c(S(=O)(=O)CCNC(C)=O)n1` [Example 15, N-(2-((6-methoxy-3-nitropyridin-2-yl)sulfonyl)ethyl)acetamide], for which the IC50 in test [1] was 0.122 µM; with MDA-MB-231 cells, 11.4 µM; in the test on MDA-MB-468, 5.47 µM; in the test with MDA-MB-231, 18.4 µM; in test [2], above 100 µM; with U-87 MG it was 16.3 µM.

`COC(=O)CCS(=O)(=O)c1nc(OC)ccc1[N+](=O)[O-]` [Example 16, methyl 3-((6-methoxy-3-nitropyridin-2-yl)sulfonyl)propanoate]: the IC50 in test [1] was 0.0606 µM; with MDA-MB-231 cells, 8.09 µM; in the test with MDA-MB-468, 3.9 µM; in the test with MDA-MB-231 it was 4.9 µM; in test [2], above 100 µM; in the test with U-87 MG, 5.23 µM.

For `COc1ccc([N+](=O)[O-])c(S(=O)(=O)CCCO)n1` [Example 17, 3-((6-methoxy-3-nitropyridin-2-yl)sulfonyl)propan-1-ol], the IC50 in test [1] was 0.103 µM; with MDA-MB-231 cells it was 12.5 µM; with MDA-MB-468, 9.77 µM; with MDA-MB-231 it was above 33 µM; in test [2], above 100 µM; in the test with U-87 MG it was 19.5 µM.

With `COc1ccc([N+](=O)[O-])c(S(=O)(=O)CCN2CCCCC2)n1` [Example 18, 6-methoxy-3-nitro-2-((2-(piperidin-1-yl)ethyl)sulfonyl)pyridine], the IC50 in test [1] is 0.00152 µM; in test [2], above 100 µM.

Take `COc1ccc([N+](=O)[O-])c(S(=O)(=O)Cc2ccccc2Cl)n1` [Example 19, 2-((2-chlorobenzyl)sulfonyl)-6-methoxy-3-nitropyridine]: the IC50 in test [1] was 0.0076 µM; with MDA-MB-231 cells, 1.8 µM; in test [2] it was above 100 µM.

Turning to `COc1ccc([N+](=O)[O-])c(S(=O)(=O)Cc2cccc(Cl)c2)n1` [Example 20, 2-((3-chlorobenzyl)sulfonyl)-6-methoxy-3-nitropyridine], the results for the IC50 (in test [1]; with MDA-MB-231 cells; in test [2]) were 0.00716 µM, 3.2 µM and above 100 µM, respectively.

Turning to `COc1ccc([N+](=O)[O-])c(S(=O)(=O)Cc2ccc(Cl)cc2)n1` [Example 21, 2-((4-chlorobenzyl)sulfonyl)-6-methoxy-3-nitropyridine], the IC50 is 0.00435 µM in test [1], 4.1 µM in the test on MDA-MB-231 cells and above 100 µM in test [2].

`COc1ccc([N+](=O)[O-])c(S(=O)(=O)Cc2ccc(F)cc2)n1` [Example 22, 2-((4-fluorobenzyl)sulfonyl)-6-methoxy-3-nitropyridine]: the results for the IC50 (in test [1]; with MDA-MB-231 cells; in test [2]) were 0.00505 µM, 1.85 µM and above 100 µM, respectively.

As for `COc1ccc([N+](=O)[O-])c(S(=O)(=O)Cc2ccc(C)cc2)n1` [Example 23, 6-methoxy-2-((4-methylbenzyl)sulfonyl)-3-nitropyridine], the figures for the IC50 in test [1] and in test [2] were 0.0145 µM and above 100 µM, respectively.

As to `COc1ccc(CS(=O)(=O)c2nc(OC)ccc2[N+](=O)[O-])cc1` [Example 24, 6-methoxy-2-((4-methoxybenzyl)sulfonyl)-3-nitropyridine], the IC50 in test [1] is 0.0253 µM; in the test on MDA-MB-231 cells, 3.5 µM; in test [2] it was above 100 µM.

`COc1ccc([N+](=O)[O-])c(S(=O)(=O)Cc2ccc(OC(F)(F)F)cc2)n1` [Example 25, 6-methoxy-3-nitro-2-((4-(trifluoromethoxy)benzyl)sulfonyl)pyridine]: the IC50 was 0.00103 µM in test [1] and above 100 µM in test [2].

Consider `COc1ccc([N+](=O)[O-])c(S(=O)(=O)CCc2ccccc2)n1` [Example 26, 6-methoxy-3-nitro-2-(phenethylsulfonyl)pyridine], for which the figures for the IC50 (in test [1]; in the test with MDA-MB-231 cells; in test [2]) were 0.0188 µM, 5.22 µM and above 100 µM, respectively.

Turning to `COc1ccc([N+](=O)[O-])c(S(=O)(=O)CCCc2ccccc2)n1` [Example 27, 6-methoxy-3-nitro-2-((3-phenylpropyl)sulfonyl)pyridine], the results for the IC50 (in test [1]; with MDA-MB-231 cells; in test [2]) were 0.00733 µM, 7.13 µM and above 100 µM, respectively.

As to `COc1ccc([N+](=O)[O-])c(S(=O)(=O)CCOc2ccccc2)n1` [Example 28, 6-methoxy-3-nitro-2-((2-phenoxyethyl)sulfonyl)pyridine], the IC50 in test [1] was 0.0203 µM; in the test on MDA-MB-231 cells, 5.24 µM; in test [2], above 100 µM.

Regarding `COc1ccc([N+](=O)[O-])c(S(=O)(=O)Cc2ccco2)n1` [Example 29, 2-((furan-2-ylmethyl)sulfonyl)-6-methoxy-3-nitropyridine], the IC50 in test [1] is 0.00678 µM; in the test on MDA-MB-231 cells it was 4.36 µM; in test [2] it was above 100 µM.

On to `COc1ccc([N+](=O)[O-])c(S(=O)(=O)CCc2cnccn2)n1` [Example 30, 2-(2-((6-methoxy-3-nitropyridin-2-yl)sulfonyl)ethyl)pyrazine], for which the results for the IC50 (in test [1]; in the test with MDA-MB-231 cells; in test [2]) were 0.0669 µM, 2.66 µM and above 100 µM, respectively.

On to `CC[S+]([O-])c1nc(OC)ccc1[N+](=O)[O-]` (stereo not shown) [Example 31, 2-Ethanesulfinyl-6-methoxy-3-nitro-pyridine], for which the IC50 was 0.131 µM in test [1]; 3.23 µM in the test on MDA-MB-468; 3.51 µM in the test with MDA-MB-231; above 100 µM in test [2]; 6.22 µM with U-87 MG.

Take `COc1ccc([N+](=O)[O-])c([S+]([O-])Cc2ccccc2)n1` (stereo not shown) [Example 32, 2-benzylsulfinyl-6-methoxy-3-nitro-pyridine]: the IC50 stood at 0.0765 µM in test [1], 0.64 µM with MDA-MB-468, 1.42 µM with MDA-MB-231 and 2.48 µM in the test on U-87 MG.

Consider `CCCCCCCC[S+]([O-])c1nc(OC)ccc1[N+](=O)[O-]` (stereo not shown) [Example 33, 6-Methoxy-3-nitro-2-octylsulfinyl-pyridine], for which the IC50 turned out to be 0.5 µM in test [1]; 1.85 µM in the test with MDA-MB-468; 3.84 µM with MDA-MB-231; 85.4 µM in test [2]; 9.25 µM with U-87 MG.
